US7326768B2, “Goodpasture antigen-binding protein isoforms and protein misfolded-mediated disorders” (priority 2003, dated 2008)
“Also recorded” adds a separate entry of the source.

Assays:
[1] = biological target: T1, recombinant human GPBP (Homo sapiens, UniProt Q9Y5P4); assay: In vitro phosphorylation: GPBP kinase activity / autophosphorylation; settings: for effect on GPBP autophosphorylation at decreasing concentrations: decreasing concentrations up to 10 μM; for GPBP kinase activity in vitro (autophosphorylation): modulators at 200 μM, 10 min autophosphorylation reaction
T1 sequence (Q9Y5P4 1-624): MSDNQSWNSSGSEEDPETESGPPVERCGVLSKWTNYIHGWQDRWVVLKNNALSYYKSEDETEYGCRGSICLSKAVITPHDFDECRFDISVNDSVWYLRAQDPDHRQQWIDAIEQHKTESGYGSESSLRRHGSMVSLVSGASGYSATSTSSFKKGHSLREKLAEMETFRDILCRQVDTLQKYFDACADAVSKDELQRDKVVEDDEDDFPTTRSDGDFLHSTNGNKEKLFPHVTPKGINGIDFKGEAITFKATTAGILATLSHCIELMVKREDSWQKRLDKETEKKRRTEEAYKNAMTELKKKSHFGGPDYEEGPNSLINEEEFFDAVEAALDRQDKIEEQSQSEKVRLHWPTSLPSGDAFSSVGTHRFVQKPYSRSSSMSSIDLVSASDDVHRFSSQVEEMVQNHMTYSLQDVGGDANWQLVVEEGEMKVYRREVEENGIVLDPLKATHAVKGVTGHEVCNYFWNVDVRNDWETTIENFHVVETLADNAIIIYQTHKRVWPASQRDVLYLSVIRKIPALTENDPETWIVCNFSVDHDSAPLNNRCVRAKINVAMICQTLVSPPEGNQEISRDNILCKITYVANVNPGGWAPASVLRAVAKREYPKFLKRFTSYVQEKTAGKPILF

[2] = system: α3(IV)NC1-expressing cells (HEK293); assay: α3(IV)NC1 conformer production in cultured cells (Western blot of culture media); assay type: cell-based, human; settings: for α3(IV)NC1 conformer production in cultured cells: synthetic peptides 100-200 μM, organic compounds 5-50 μM, 24-48 h
[3] = system: C57BL/6 mice; assay: DAB-Am-4 treatment of control mice (genetic background control); assay type: in vivo; settings: C57BL/6 control mice
Experimental: Animal studies. NZW, male or female, 4-6 month-old were injected intraperitoneally either with 1 μg/g of body weight of DAB-Am-4 and/or with 20 μg/g of body weight of the Q2L or Q2D peptide. These products were administered in a volume of 500 μl of steril saline solution 3 times per week, at alternate days, during 12 consecutive weeks. Age-matched uninjected mice were used as controls. At the end of the experiment, mice were sacrificed and kidneys were fixed in 10% paraformaldehide and processed for pathological studies. Similar DAB-Am-4 treatment studies were performed on C57BL/6 animals for genetic background control.

[4] = system: NZW mice; assay: Degenerative glomerulopathy in NZW mice (histochemical studies of kidney); assay type: in vivo
[5] = biological target: GPBP-PrP^C complex (Homo sapiens, UniProt Q9Y5P4); assay type: binding, bovine PrP^C
[6] = system: rat liver lysosomes; assay type: in vivo; settings: lysosomes from liver of leupeptin-treated vs untreated rats
Experimental: FIG. 6. Identification of 91-kDa GPBP isoform in rat liver lysosomes and evidence for processing to 44-47-kDa isoforms. In A, similar amounts (˜50 μg) of lysosomal fractions from liver of untreated (C) or leupeptin-treated (L) rats were analyzed by Western blot using Mab6 antibodies. In B, lysosomal fractions as in A were further fractioned and whole (W), soluble (S) or non-soluble (M) fractions were similarly analyzed.
Subcellular fractioning and related studies. Rat liver subcellular fractionation was essentially performed as indicated in Aniento, F., Roche, E., Cuervo, A. M., Knecht, E. (1993). J. Biol. Chem. 268, 10463-10470. For some purposes lysosomal fractions (freshly prepared entire lysosomes) were dispersed in pure water and subjected to ten consecutive cycles of freezing and thawing to alter lysosomal membrane integrity (broken lysosomes). For other purposes, lysosomal fractions were similarly disrupted in the presence of protease inhibitors (PMSF 2 mM, leupeptin 0.2 mM and EDTA 2 mM) and subsequently centrifuged 130,000×g for 10 min at room temp to separate the soluble lysosomal fraction (also called here lysosomal extract) from the non-soluble fraction which, after rinse with 0.3 M saccharose in 10 mM MOPS pH 7.2, was used as the lysosomal membrane fraction.

[7] = system: GPBP mRNA; assay: Silencing of GPBP expression in 293 cells (Western blot); assay type: cell-based, human; settings: 293 cells transfected with silencer plasmid
Experimental: FIG. 4. Cellular 91- and 120-kDa GPBP-related polypeptides are translation products of GPBP mRNA. Similar amounts (˜50 μg) of lysates from non-transfected 293 cells (1) or from 293 cells transfected with a plasmid encoding for SiGFP (2), SiGPBP (3), SiGPBP/Δ26-1 (4) SiGPBP/Δ26-2 (5), SiGPBP/Δ26-3 (6), SiGPBP/Δ26-4 (7) were analyzed by Western blot using the indicated antibodies.
SimRNA production. Silencers were generated using pSilencer 2.1-U6 hygro plasmid (Ambion) following manufacturers recommendations. The oligonucleotide pairs used were:
Recombinant protein expression in cultured cells. The pcDNA3-based contructs containing the cDNA encoding the different human proteins of interest were used to transfect human 293 cells using standard calcium phosphate procedures in ProFection Mammalian Transfection System (Promega). 24-48 h after transfection cell lysates were used for Western blot, precipitation or immunoprecipitation studies. Cells expressing GPBP or derived deletion mutants were collected on ice with 50 mM Tris HCl pH 7.4, 0.05% Triton X-100, 1 mM PMSF and 5 μg/ml leupeptin, disrupted by vortex and insoluble material discarded by centrifugation at 14.000 rpm in Eppendorf at 4° C. for 10 min and supernatant used for Western blot analysis.

[8] = biological target: T2, GPBP (Homo sapiens, UniProt Q9Y5P4); assay: Auto-phosphorylation of GPBP deletion mutant at pH 5; assay type: biochemical
T2 sequence (Q9Y5P4 1-299): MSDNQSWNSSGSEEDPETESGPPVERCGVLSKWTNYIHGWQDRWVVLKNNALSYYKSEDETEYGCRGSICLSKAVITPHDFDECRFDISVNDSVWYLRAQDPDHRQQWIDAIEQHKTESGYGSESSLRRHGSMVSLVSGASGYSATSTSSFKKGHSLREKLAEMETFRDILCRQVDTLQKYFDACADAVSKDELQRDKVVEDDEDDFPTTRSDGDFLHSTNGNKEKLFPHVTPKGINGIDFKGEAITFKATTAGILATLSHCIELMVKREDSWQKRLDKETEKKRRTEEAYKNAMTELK

NCCCN(CCCN)CCCCN(CCCN)CCCN [DAB-Am-4, polypropylenimine tetraamine dendrimer, reference compound]
effect on GPBP autophosphorylation at decreasing concentrations [1]: activation | GPBP kinase activity in vitro (autophosphorylation) [1]: potent activator; also recorded: caused induction | α3(IV)NC1 conformer production in cultured cells [2]: potent activator | α3(IV)NC1 conformer production in cultured cells ([2]; listed as DAB-Am4): efficient increase in conformer production | histological changes [3]: not observed histological changes of relevance | progression of the glomerulopathy ([4]; 4-6 month-old NZW, 1 μg/g i.p. 3 times per week, 12 weeks): acceleration of the degenerative process, resulting in premature glomerulosclerosis at 7-9 month of age | morphological pattern of disease progression ([4]; NZW, DAB-Am-4 treatment): progression through Stages 3b and 4b

CN([C@@H](Cc1ccc(OS(=O)(=O)c2cccc3cnccc23)cc1)C(=O)N1CCN(c2ccccc2)CC1)S(=O)(=O)c1cccc2cnccc12 [KN62, 1-[N,O-bis-(5-Isoquinolinesulfonyl)-N-methyl-L-tyrosyl]-4-phenylpiperazine, reference compound]
GPBP kinase activity in vitro (autophosphorylation) [1]: inhibited GPBP kinase activity in vitro to a larger extent than KN93 | α3(IV)NC1 conformer production in cultured cells [2]: reduced cell conformer production

Cl.N [NH4Cl]
α3(IV)NC1 conformer production ([2]; 20 mM NH4Cl): reduced conformer production

CC[C@@H](C)[C@@H](NC(=O)[C@@H](CS)NC(=O)[C@@H](Cc1c[nH]cn1)NC(=O)[C@@H](CO)NC(=O)[C@@H](CC(C)C)NC(=O)[C@H](NC(=O)[C@@H](C)NC(=O)[C@@H](CC(C)C)NC(C)=O)[C@H](C)O)C(=O)N[C@H](CCC(=O)O)C(=O)N[C@H](CC(C)C)C(=O)N[C@H](CCSC)C(=O)N[C@@H](C(=O)N[C@H](CCCCN)C(=O)N[C@H](CCCNC(=N)N)C(N)=O)C(C)C [Q2D]
effect on GPBP autophosphorylation at decreasing concentrations [1]: inhibition | GPBP kinase activity in vitro (autophosphorylation) [1]: more efficient inhibiting | GPBP kinase activity in vitro (autophosphorylation) ([1]; listed as D-amino acid version of Q2): more potent inhibitory activity | GPBP-PrP^C complex formation [5]: fully inhibited

CC[C@H](C)[C@H](NC(=O)[C@H](CS)NC(=O)[C@H](Cc1c[nH]cn1)NC(=O)[C@H](CO)NC(=O)[C@H](CC(C)C)NC(=O)[C@@H](NC(=O)[C@H](C)NC(=O)[C@H](CC(C)C)NC(C)=O)[C@@H](C)O)C(=O)N[C@@H](CCC(=O)O)C(=O)N[C@@H](CC(C)C)C(=O)N[C@@H](CCSC)C(=O)N[C@H](C(=O)N[C@@H](CCCCN)C(=O)N[C@@H](CCCNC(=N)N)C(N)=O)C(C)C [Q2L]
GPBP-PrP^C complex formation [5]: efficiently inhibited

CC(=O)N[C@@H](CC(C)C)C(=O)N[C@@H](CC(C)C)C(=O)N[C@H](C=O)CCCNC(=N)N [leupeptin]
presence of α3(IV)NC1 proteolytic products [2]: inhibited the presence of proteolytic products | lysosomal GPBP immunoreactive polypeptides [6]: 44-47-kDa polypeptides significantly diminished

CN[C@@H]1C[C@H]2O[C@@](C)([C@@H]1OC)n1c3ccccc3c3c4c(c5c6ccccc6n2c5c31)C(=O)NC4 [staurosporine, reference compound]
GPBP kinase activity in vitro (autophosphorylation) [1]: efficiently impaired

Ac-EKTAGKPILF-OH [Q4]
GPBP kinase activity in vitro (autophosphorylation) [1]: inhibited GPBP autophosphorylation in a more limited manner; also recorded: poor inhibitor | α3(IV)NC1 conformer production in cultured cells [2]: reduction in conformer production; also recorded: more limited inhibitory effect

Ac-VLMASLETLCRIHKI-NH2 [Q2Lr, reference compound]
GPBP-PrP^C complex formation [5]: no effect on complex formation

SiGPBP/Δ26-1: silencer of GPBP and/or GPBPΔ26 expression, SEQ ID NO:47 (AAACUACAUUCAUGGGUGGCA; listed as RNA, chemistry not given here)
GPBP expression (endogenous 91- and 120-kDa GPBP) [7]: diminish GPBP and/or GPBPΔ26 expression

SiGPBP/Δ26-2: silencer of GPBP and/or GPBPΔ26 expression, SEQ ID NO:48 (guide AAACAGAGUAUGGCUGCAGAG; listed as RNA, chemistry not given here)
GPBP expression (endogenous 91- and 120-kDa GPBP) [7]: silenced endogenous GPBP more efficiently than SiGPBP/Δ26-4 | GPBP expression (endogenous 91- and 120-kDa GPBP) ([7]; listed as siGPBPΔ26-2): diminish GPBP and/or GPBPΔ26 expression

SiGPBP/Δ26-3: silencer of GPBP and/or GPBPΔ26 expression, SEQ ID NO:49 (guide AAGUACUUUGAUGCCUGUGCU; listed as RNA, chemistry not given here)
GPBP expression (endogenous 91- and 120-kDa GPBP) [7]: diminish GPBP and/or GPBPΔ26 expression

SiGPBP/Δ26-4: silencer of GPBP and/or GPBPΔ26 expression, SEQ ID NO:50 (guide AAAGGCGUCACAGGACAUGAA; listed as RNA, chemistry not given here)
GPBP expression (endogenous 91- and 120-kDa GPBP) [7]: diminish GPBP and/or GPBPΔ26 expression

SiGPBP: silencer of GPBP expression, SEQ ID NO:51 (AAGCCCUAUAGUCGCUCUUCC; listed as RNA, chemistry not given here)
GPBP expression (endogenous 91- and 120-kDa GPBP) [7]: diminish GPBP and/or GPBPΔ26 expression

B1: residues 1-299 of GPBP: C-terminal deletion mutant of GPBP with approximately 44-kDa molecular mass, SEQ ID NO:38 (protein)
chain: MSDNQSWNSSGSEEDPETESGPPVERCGVLSKWTNYIHGWQDRWVVLKNNALSYYKSEDETEYGCRGSICLSKAVITPHDFDECRFDISVNDSVWYLRAQDPDHRQQWIDAIEQHKTESGYGSESSLRRHGSMVSLVSGASGYSATSTSSFKKGHSLREKLAEMETFRDILCRQVDTLQKYFDACADAVSKDELQRDKVVEDDEDDFPTTRSDGDFLHSTNGNKEKLFPHVTPKGINGIDFKGEAITFKATTAGILATLSHCIELMVKREDSWQKRLDKETEKKRRTEEAYKNAMTELK
modifications: Derived sequence
auto-phosphorylation activity [8]: greater auto-phosphorylation activity at pH 5 than full sized GPBP
